Reference: paper PMC11942905, “Identification of a Selective Inhibitor of Human NFS1, a Cysteine Desulfurase Involved in Fe-S Cluster Assembly, via Structure-Based Virtual Screening” (International Journal of Molecular Sciences, 2025)

What was measured:
BEAS-2B cells = experiment: CCK-8 cell viability assay, BEAS-2B; format: cell-based; conditions: Homo sapiens, CCK-8, 72 h
Method: Human bronchial epithelial cells (BEAS-2B) and human lung adenocarcinoma A549 cells were purchased from the Institute of Biochemistry and Cell Biology, Chinese Academy of Sciences (Shanghai, China). BEAS-2B and A549 cells were cultured in DMEM supplemented with 10% (v/v) fetal bovine serum and 1% (v/v) penicillin–streptomycin solution at 37 °C in a humidified atmosphere containing 5% CO2. The half-maximal inhibitory concentration (IC50) values of the selected compounds against BEAS-2B and A549 cells were determined using the CCK-8 assay. Briefly, the cells were seeded into 96-well culture plates at a density of 5 × 10^3 cells per well. After 12 h of culture, fresh medium containing varying concentrations of the selected compounds dissolved in DMSO was added for an additional 72-hour incubation. Subsequently, 10 μL of CCK-8 solution was added to each well, followed by a further 1.5-h incubation at 37 °C. The optical density at 450 nm (OD450) for each well was measured using a microplate reader. Medium containing DMSO alone was used as the control group. Cell viability was calculated as the percentage of the OD450 of the experimental group compared to that of the control group, which was set at 100%.

[1] = tested on: succinate dehydrogenase (SDH); experiment: Succinate dehydrogenase activity in A549 cells; format: cell-based, human; conditions: 50 µM
Method: The activity of succinate dehydrogenase (SDH) in cells was determined using an SDH activity assay kit (Solarbio, Beijing, China) according to the manufacturer’s instructions. The optical density at 600 nm (OD600) was measured using a multifunctional microplate reader in 96-well plates. One unit of SDH activity was defined as the amount of enzyme catalyzing the consumption of 1 nmol of 2,6-dichlorophenol indophenol per minute at 37 °C [43]. The activity of aconitase (ACO) was measured as previously described, with some modifications. The cells were washed three times with pre-cooled PBS and lysed with lysis buffer containing 50 mM of Tris-HCl (pH 8.0), 0.2% Triton X-100, 0.6 mM of MnCl2, 5 mM of citrate, and 1 mM of PMSF. The aconitase activity was measured by monitoring the formation of cis-aconitate from isocitrate at 240 nm in 50 mM of Tris-HCl (pH 8.0) containing 20 mM of DL-trisodium isocitrate at 37 °C. An extinction coefficient of 3600 M^−1 cm^−1 at 240 nm was used to calculate the cis-aconitate concentration. One unit of ACO activity was defined as the amount of enzyme catalyzing the generation of 1 nmol of cis-aconitate per minute at 37 °C.

human NFS1 = target: T1, human NFS1 (Homo sapiens, UniProt Q9Y697); experiment: NFS1 inhibition assay (H2S-producing, methylene blue); format: biochemical
T1 construct: His tag (N); made in house; host or cells: E. coli BL21(DE3)
Method: The 42 candidate compounds were tested for their inhibitory effects on human NFS1 using an in vitro H2S-producing assay. […] Subsequently, the effects of the selected compounds (100 µM) on human NFS1 activity were evaluated.
The activity of NFS1 was determined using a methylene blue assay as described previously, with some modifications. Briefly, reaction mixtures (200 μL) containing 50 mM of Tris-HCl (pH 8.0), 10 μM of PLP, 1 mM of DTT, and 10 μg of NFS1 were preincubated at 37 °C for 3 min. The reaction was then initiated by adding 1 mM of cysteine. After 15 min of incubation at 37 °C, the reaction was quenched by adding 25 μL of 20 mM N,N-dimethyl-p-phenylenediamine in 7.2 M of HCl and 25 μL of 30 mM FeCl3 in 1.2 M of HCl. Subsequently, the reaction mixtures were incubated for another 15 min at 37 °C, followed by centrifugation at 12,000 rpm for 10 minutes to remove the precipitates. The absorbance of the supernatant was measured at 670 nm. A reaction mixture without the substrate cysteine was used as the negative control. The H2S concentration was calculated based on a standard curve prepared using various concentrations of sodium sulfide (Na2S).
For the NFS1 inhibition assays, all test compounds were dissolved in dimethyl sulfoxide (DMSO) to prepare 10 mM stock solutions, which were stored at −80 °C. The stock solutions were diluted to the appropriate concentrations with 50 mM of Tris-HCl (pH 8.0) as required for the experiments. A reaction mixture containing DMSO but no test compounds was used as a negative control. The dose-dependent effects of the inhibitors on NFS1 activity were determined using the methylene blue assay described above. The IC50 values of the inhibitors were calculated by adding different concentrations of the inhibitors to the enzyme reaction mixtures.

NFS1 H156A = target: T2, NFS1 H156A (Homo sapiens, UniProt Q9Y697, H156A); experiment: H2S-producing assay, NFS1 H156A mutant; format: biochemical
T2 construct: His tag (N); made in house; host or cells: E. coli BL21(DE3)
Method: To further validate the accuracy of the simulated results, the residues Cys158, Glu387, Lys157, and His156 were mutated to alanine using site-directed mutagenesis.
For the expression and purification of NFS1Δ1-55/ISD11 in E. coli, the plasmid pNFS1-ISD11 was transformed into BL21(DE3) cells. The cells were grown at 37 °C in 1 L cultures of LB medium containing chloramphenicol (50 μg/ml) until the optical density at 600 nm (OD600) reached 0.6–0.8. Protein expression was induced by adding 0.1 mM isopropyl β-D-1-thiogalactopyranoside (IPTG), followed by an additional 12 h of incubation at 25 °C. The cells were harvested by centrifugation at 8000 rpm for 10 min at 4 °C, then resuspended in lysis buffer containing 50 mM phosphate-buffered saline (PBS, pH 7.4), 500 mM NaCl, 100 mg/L lysozyme, 30 mM imidazole, and 1 mM phenylmethanesulfonyl fluoride (PMSF). The resuspended cells were incubated on ice for 1 h, followed by sonication using an Ultrasonic Cell Disruption System (Scientz, Ningbo, China). The supernatant was obtained by centrifugation at 12,000 rpm for 30 min at 4 °C and was loaded onto a HisTrap FF column (GE Healthcare, Chicago, MA, USA) pre-equilibrated with lysis buffer. […] The protein concentration was measured using a BCA protein assay reagent kit (TransGen Biotech, Beijing, China).

T1 sequence (Q9Y697 56-457): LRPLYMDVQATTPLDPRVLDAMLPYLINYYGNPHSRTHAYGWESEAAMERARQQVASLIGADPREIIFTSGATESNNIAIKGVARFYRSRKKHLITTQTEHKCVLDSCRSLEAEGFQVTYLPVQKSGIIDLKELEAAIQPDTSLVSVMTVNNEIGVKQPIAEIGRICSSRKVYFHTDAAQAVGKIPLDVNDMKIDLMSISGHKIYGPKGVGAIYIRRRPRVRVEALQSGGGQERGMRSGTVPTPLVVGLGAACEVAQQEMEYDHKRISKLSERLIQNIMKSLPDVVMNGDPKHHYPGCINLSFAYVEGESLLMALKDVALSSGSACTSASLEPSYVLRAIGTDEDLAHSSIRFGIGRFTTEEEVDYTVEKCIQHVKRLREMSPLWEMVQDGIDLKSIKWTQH
T2 sequence (Q9Y697 56-457 H156A): as the sequence (Q9Y697 56-457) above, with H101A counted along it

`COc1cc(/C=N/NC(=O)COc2ccc(Cl)cc2Cl)ccc1O` [Compound 53] was tested, and the IC50 (BEAS-2B cells) was 31 ± 3.98 µM, the “SDH activity compared to the control group” value [1] was 81.8% and the IC50 (human NFS1) was 40.5 ± 3.85 µM. The Ki (human NFS1) was 6.4 ± 0.48 µM, the Vmax (human NFS1; inhibitor 5 μM) was 144.2 ± 2.81 nmol/min/mg and the Vmax (human NFS1; inhibitor 10 μM) was 143.3 ± 4.06 nmol/min/mg. The Vmax (human NFS1; inhibitor 20 μM) was 144.1 ± 4.88 nmol/min/mg, the Vmax (human NFS1; inhibitor 50 μM) was 143.5 ± 4.31 nmol/min/mg and the Vmax (human NFS1; inhibitor 100 μM) was 143.8 ± 8.75 nmol/min/mg. For the same molecule, the inhibition at 50 µM (human NFS1; read-out: inhibition of NFS1 activity) was 40 to 50%, the “Inhibition Type” value (human NFS1; versus substrate L-cysteine) was “competitive inhibitors” and the IC50 (NFS1 H156A) was 97.3 ± 1.39 µM.
